# According to patent US20250313808A1, “LIQUID CRYSTAL SCAFFOLDS AND USE THEREOF FOR ORGANOID, SPHEROID, AND 3D CELLAGGREGATE MANUFACTURING” (THE REGENTS OF THE UNIVERSITY OF CALIFORNIA, priority 2022, published 2025):
# Test: Cell growth on CLC versus other substrates (FIG. 13)
# Type: cell-based
# Conditions: CLC compared to PDMS, agarose or cholesteryl oleyl carbonate substrates
# Protocol: Varying ratio of mesogen were weighted to generate a scaffold with desirable phase transition. The mesogens were heated to the melt phase of about 80° C. and then pipetted onto surfaces to create CLC-coated substrates. The substrates were then placed in well plates cell culture media and cells were added to the substrates using traditional cell seeding techniques. The scaffold directed cellular organization once the scaffold was placed in the cell culture incubator with seeded cells on the surface.
smiles,measurement,value
CCCCCCCC/C=C\CCCCCCCCOC(=O)O[C@H]1CC[C@@]2(C)C(=CC[C@H]3[C@@H]4CC[C@H]([C@H](C)CCCC(C)C)[C@@]4(C)CC[C@@H]32)C1 [cholesteryl oleyl carbonate],cell growth on substrate,cell growth was only observed on CLC substrate
